From PubChem BioAssay AID449764 (Southern Research Specialized Biocontainment Screening …, 2010)

What follows are compounds tested on Mycobacterium tuberculosis H37Rv growth inhibition, no glycerol (assay: Mycobacterium tuberculosis H37Rv growth inhibition, no glycerol, confirmatory dose response (AID 449764;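 also: growth read after 7 days of incubation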)). Conditions: measured here: IC90 growth inhibition.
`Oc1[nH]c2ccccc2c1N=NC(=S)N1CCOCC1` gave an IC90 of 24.3 µM.
With `CC1CCN(C(=S)NC(=O)c2cccs2)CC1` the IC90 was 26.3 µM.
With `CN1CCN(c2cc(-c3ccccc3)nc3cc(-c4ccc(F)cc4)nn23)CC1` the IC90 was 42.2 µM.
Compound `O=C(c1cccc(-c2ccco2)c1)N1CCCC(N2CCN(c3ccc(F)cc3)CC2)C1` (stereo unspecified) has an IC90 of 95 µM.
`O=C1/C(=C\c2ccncc2)CCc2ccccc21` was tested, and the IC90 was 49.7 µM.
With `O=C(/C=C/c1cc(Br)ccc1O)c1ccco1` the IC90 was 20.4 µM.
`Cc1ccc(C)c(-c2nnc(NC(=O)C3=COCCO3)o2)c1` gave an IC90 of 30.2 µM.
`CCOC(=O)COn1c2c(c3c4no[n+]([O-])c4ccc31)CCCC2` was tested, and the IC90 was 6.48 µM.
Work on `CCC1(c2ccccc2)ON(c2c(Br)cccc2Br)C1=O` (stereo unspecified) yielded an IC90 of 77.3 µM.
Compound `O=C(c1cc2nc(-c3ccc(F)cc3)cc(C(F)(F)F)n2n1)N1CCCCC1c1cccnc1` (stereo unspecified) has an IC90 of 29.2 µM.
In the case of `C=CCN(C(=O)CSc1nc2c(sc3ccccc32)c(=O)n1CCN(CC)CC)c1ccccc1`, the IC90 is reported as 38.8 µM.
With `Cc1ccc2nc3c(cc(C(=O)NCc4ccco4)c(=N)n3Cc3ccco3)c(=O)n2c1` the IC90 was > 100 µM.
For `O=C(NNc1nc(-c2ccccc2)cs1)c1ccccc1`, the IC90 was > 100 µM.
For `CC(C)C[C@H](NC(=O)c1nc[nH]c1C(=O)NC1CCN(C(=O)OC(C)(C)C)CC1)C(=O)OCc1ccccc1`, the IC90 was 29.6 µM.
With `CC(C)OC(=O)c1ccc(COC(=O)c2cnccn2)cc1` the IC90 was > 100 µM.
`COc1cc(C(=O)/C=C/c2cccnc2)c([N+](=O)[O-])cc1OC` gave an IC90 of 26.2 µM.
Compound `O=C(CCn1c(=O)c2cccn2c2cccnc21)N1CCN(c2cccc(Cl)c2)CC1` has an IC90 of 46.9 µM.
With `CCOc1ccc(NC(=S)Nc2ccc(C)c([N+](=O)[O-])c2)cc1` the IC90 was > 100 µM.
Work on `Cc1cc(C(=O)N/N=C\C(Br)=C\c2ccccc2)c(C)o1` yielded an IC90 of 53.6 µM.
`CC(=O)c1c(N2CCCC2)[nH]c(-c2ccccc2)nc1=S` was tested, and the IC90 was > 100 µM.
`Cc1cc(C=C2C(=O)NC(=S)NC2=O)c(C)n1C1CCCC1` showed an IC90 of 73.9 µM.
`Cc1ccccc1NC(=O)Cc1nc(COC(=O)/C=C/c2ccccc2)cs1` showed an IC90 of 92.3 µM.
Work on `COc1ccccc1C(CNC(=O)C(C)(C)Oc1ccc(Cl)cc1)N1CCCC1` (stereo unspecified) yielded an IC90 of 42 µM.
In the case of `COc1ccc(C(=O)/C=C/Sc2nc3ccccc3o2)cc1`, the IC90 is reported as > 100 µM.
`CCOC(=O)CNC(=O)c1sc2ncnc(N3CCc4ccccc4C3)c2c1C` showed an IC90 of 97.7 µM.
In the case of `FC(F)(Cl)c1nnc2ccc(Cl)nn12`, the IC90 is reported as 0.8 µM.
With `COCCN(C(=O)C1CC(=O)N(Cc2ccccc2)C1)c1nc(-c2ccc([N+](=O)[O-])cc2)cs1` (stereo unspecified) the IC90 was > 100 µM.
`O=c1cc(O)c2sc3nc(-c4cccnc4)cc(C(F)(F)F)c3c2[nH]1` was tested, and the IC90 was > 100 µM.
In the case of `COc1cc2c(C(=O)N3CCN(c4cccc(Cl)c4)CC3)cn(CC(C)C)c(=O)c2cc1OC`, the IC90 is reported as 73.4 µM.
`CC1(c2cc([N+](=O)[O-])cc([N+](=O)[O-])c2)CC(C)(C)N(C(=O)c2ccccc2)c2ccccc21` (stereo unspecified) showed an IC90 of 28.9 µM.
Work on `O=C(Nc1ccn(Cc2ccccc2F)n1)c1ccc(COc2ccccc2Cl)cc1` yielded an IC90 of 16.1 µM.
With `Cc1ccc(NC(=S)N(CCCN2CCCC2)Cc2cccn2Cc2ccc(Cl)cc2)cc1C` the IC90 was > 100 µM.
Work on `Cc1cc2c(ccc3c2no[n+]3[O-])nn1` yielded an IC90 of 22.8 µM.
In the case of `CN(C(=O)COC(=O)c1ccc([N+](=O)[O-])cc1Cl)C1CCCCC1`, the IC90 is reported as > 100 µM.
For `O=[N+]([O-])c1c(C(Cl)Cl)nn(-c2ccc(Cl)cc2)c1N1CCCCC1`, the IC90 was 23.3 µM.
With `CN(Cc1ccc(Br)cc1)C(=O)CCN1C(=O)c2cccc([N+](=O)[O-])c2C1=O` the IC90 was > 100 µM.
With `O=C(OCn1nnc2ccccc2c1=O)C1CCCCC1` the IC90 was 6.69 µM.
`CCCn1nnc(NC(=O)COc2ccc(CC)cc2)n1` was tested, and the IC90 was > 100 µM.
In the case of `Cc1nc(-c2ccc(Cl)cc2)sc1C1(C)CC(c2ccc(C#N)cc2)=NO1` (stereo unspecified), the IC90 is reported as > 100 µM.
`O=C(CN1CCN(c2nc(-c3ccc(F)cc3)cs2)CC1)NCc1ccc2c(c1)OCO2` gave an IC90 of 55.6 µM.
`Cc1cccc(/C=C/c2onc(C)c2[N+](=O)[O-])n1` showed an IC90 of 26.8 µM.
`CCOc1ccc(-c2cnc(NCc3cccc4ccccc34)n2CCOC)cc1` was tested, and the IC90 was 11 µM.
In the case of `Cc1sc2ncnc(N3CCC(C(=O)N(CC(C)C)c4nc5ccccc5s4)CC3)c2c1C`, the IC90 is reported as > 100 µM.
For `O=C(CCC(=O)OCc1ccc(C(=O)Oc2ccc(Cl)cc2)cc1)Nc1ccccc1`, the IC90 was > 100 µM.
`Cc1ccc(Nc2nc(CSc3nnc(-c4cccs4)o3)cs2)cc1` was tested, and the IC90 was > 100 µM.
Work on `CC(C)CS(=O)(=O)C1=NN2C(=N)/C(=C\c3ccc(OC(=O)c4ccco4)cc3)C(=O)N=C2S1` yielded an IC90 of 26.5 µM.
With `Cc1cnc(NC(=O)NCC2CCCC(CNC(=O)Nc3ncc(C)s3)C2)s1` (stereo unspecified) the IC90 was > 50 µM.
`Cc1cc(Nc2cc(Cl)nc(Sc3ccc(NC(=O)C4CC4)cc3)n2)n[nH]1` was tested, and the IC90 was 59.2 µM.
In the case of `CCc1ccc(N=Nc2ccc(O)c3[nH]cnc23)cc1`, the IC90 is reported as > 100 µM.
`CCOc1cc(/C=C\[N+](=O)[O-])ccc1OCC(=O)Nc1ccccc1C` was tested, and the IC90 was 59 µM.
`COC(=O)c1cc(Sc2cccc(Cl)c2Cl)ccn1` gave an IC90 of 40.5 µM.
In the case of `Nc1c(N(CCC2=CCCCC2)C(=O)c2ccc([N+](=O)[O-])o2)c(=O)[nH]c(=O)n1Cc1ccccc1`, the IC90 is reported as 48.2 µM.
With `CN(C)C(=O)c1ccc(NC(=O)COC(=O)c2cc3c(s2)CCCCC3)cc1` the IC90 was > 100 µM.
Work on `COc1ccc(CN2CCCC(C(=O)c3ccc(SC)cc3)C2)cc1Cn1cccn1` (stereo unspecified) yielded an IC90 of 28.2 µM.
`CCOC(=O)CCCNC(=O)COC(=O)c1cc(Br)c(Br)s1` was tested, and the IC90 was > 100 µM.
With `COC(=O)/C(=C1/Oc2cc(C)oc(=O)c2S1)C(F)(F)F` the IC90 was > 100 µM.
With `Cn1nnnc1Sc1ncnc2scc(-c3cc4ccccc4o3)c12` the IC90 was 12.1 µM.
In the case of `COc1ccc(C2CC2/C(C)=N/OC(=O)c2ccc(F)cc2)cc1` (stereo unspecified), the IC90 is reported as 52.2 µM.
Work on `Cc1cc2[nH]c3c(c[n+](C)c4ccccc34)c2cc1C` yielded an IC90 of 15.6 µM.
For `CCOc1ccc(NCc2cccn2-c2nnc(N3CCC(C(=O)NCCCN4C(C)CCCC4C)CC3)s2)cc1` (stereo unspecified), the IC90 was > 100 µM.
`COc1cccc(-c2cnc(NCc3cc(Cl)ccc3O)n2C)c1` gave an IC90 of 23.4 µM.
In the case of `O=C(NCCc1ccccc1)[C@@H]1CC=C[C@@H]2CCN(Cc3ccc(Cl)c(Cl)c3)C(=O)[C@@H]21`, the IC90 is reported as 85.5 µM.
With `COc1ccccc1NC(=O)c1ccc(NC(=O)CSc2nnnn2C)cc1` the IC90 was 21.6 µM.
`Cc1cc(C)c(CSc2ncc(-c3ccc([N+](=O)[O-])cc3)[nH]2)c(C)c1` gave an IC90 of 53.4 µM.
For `Cc1ccc(S(=O)(=O)NNC(=O)c2cc([N+](=O)[O-])c(C)c([N+](=O)[O-])c2)cc1`, the IC90 was 13.8 µM.
Compound `Cc1ccc2ccc3ccc(C)nc3c2n1` has an IC90 of 2.11 µM.
`COC(=O)c1ccc(NC(=O)CSc2nc3ccc(N4C(=O)C5C6C=CC(C6)C5C4=O)cc3s2)cc1` (stereo unspecified) was tested, and the IC90 was 6.03 µM.
With `CC(C)(C)Nc1nc(NC(C)(C)C)nc(-n2ccnc2)n1` the IC90 was 98.5 µM.
Compound `CCCn1c(CC)nc([N+](=O)[O-])c1S(=O)(=O)c1ccccc1` has an IC90 of 23.6 µM.
For `COc1cc(NC(=O)c2cccs2)c(C(=O)OCC(=O)NCc2ccco2)cc1OC`, the IC90 was > 100 µM.
In the case of `CCc1c(C)sc2nc3c(C(=O)N4CCOCC4)cc(C(=O)c4cc(F)ccc4O)cn3c(=O)c12`, the IC90 is reported as > 100 µM.
`CNC(CC(=O)c1ccc([N+](=O)[O-])cc1)C(Cl)(Cl)Cl` (stereo unspecified) was tested, and the IC90 was 7.81 µM.
For `CCCNc1nc(-c2cc(C(=O)Nc3ccccc3)on2)cc(C(C)C)n1`, the IC90 was 68.9 µM.
`O=C(NNc1nc2ccccc2s1)c1ccccc1F` gave an IC90 of 59.2 µM.
Compound `COc1cc2nc(Nc3ccc(C)c(Cl)c3)nc(N)c2cc1OC` has an IC90 of 66.8 µM.
In the case of `O=c1cc(N=Nc2ccc(Cl)cc2)[nH]c(=O)[nH]1`, the IC90 is reported as > 100 µM.
`COc1cccc(NC(=S)/C(=C(\[O-])c2cc(C)n(-c3ccccc3F)c2C)[n+]2ccc(N(C)C)cc2)c1` gave an IC90 of 90.3 µM.
With `COc1ccc(CNC[C@@H](CCCCN(C)Cc2ccc(OC)cc2)N2C[C@H](c3ccccc3)N(CCc3ccc(Cl)c(Cl)c3)C(=O)C2=O)cc1` the IC90 was 14 µM.
`O=C(NCC1CCN(c2ccc(S(=O)(=O)N3CCOCC3)cc2)CC1)c1ccc(Cl)cc1` showed an IC90 of 57 µM.
In the case of `CC1(O)CC(c2ccc(Cl)cc2)=NN1C(=O)c1ccc([N+](=O)[O-])cc1` (stereo unspecified), the IC90 is reported as > 100 µM.
`COc1ccc2[nH]c3c(C)c4ccncc4c(C)c3c2c1` showed an IC90 of 1.68 µM.
For `ClCc1nc2ccccc2c2ccccc12`, the IC90 was 28.4 µM.
For `CCCCN(C)S(=O)(=O)c1ccc(C(=O)Nc2nnc(-c3ccco3)o2)cc1`, the IC90 was 32.7 µM.
With `CCCc1cc(=O)n2[nH]c(C)c(-c3ccc(Cl)cc3)c2n1` the IC90 was 13.2 µM.
Work on `CCCCOC(=O)CCN1C(=O)/C(=C2\SC(=S)N(CCC(=O)OCCCC)C2=O)SC1=S` yielded an IC90 of 10.6 µM.
`COc1ccc(-n2nnnc2S(=O)(=O)CC(=O)N2CCCCC2)cc1` was tested, and the IC90 was 20.9 µM.
